test system: Enzyme from the LM NRRL-B-21297 strain; experiment: Suitability of acceptors: oligosaccharide formation from sucrose and acceptor; type: biochemical, Leuconostoc mesenteroides; details: 0.4% by weight each of sucrose and acceptor, pH 6, 2 hours at 37° C.; DP3-DP7 minus starting material
Procedure: Enzyme from the LM NRRL-B-21297 strain was tested to determine the suitability of various acceptors. Enzyme was prepared using the methods described herein.
In determining the suitability of the preparation of the sucrose/acceptor products, 0.4% by weight of each sucrose and acceptor were mixed with enzyme solution in 0.01 M sodium gluconate buffer, pH 6, and the reaction proceeded for 2 hours at 37° C.
The carbohydrate profiles of products generated by the enzyme reactions with the blends of sucrose and syrups and syrup solids herein, were analyzed by high performance liquid chromatography (HPLC) using two (2) Bio-Rad Aminex HPX42A carbohydrate columns (300 mm×7.8 mm) available from Bio-Rad, Hercules, Calif., in succession, with water as the eluate at 0.2 ml/min, at a temperature of 65° C.
The reaction rate was estimated based on the amount of oligosaccharides generated from each acceptor and normalized against the fructose concentration in each reaction. The results are reported below in Table 2.0. The values reported for oligosaccharides to fructose are for DP3-DP7 minus starting material.

Q: With OC[C@H]1O[C@H](O[C@H]2[C@H](O)[C@@H](O)C(O)O[C@@H]2CO)[C@H](O)[C@@H](O)[C@@H]1O (mixture of isomers) [Maltose, reference compound] as the compound, how does the “Weight Ratio of Oligosaccharide to Fructose” value (“Weight Ratio” below) read?
A: The value was 2.02.

Q: With Maltotriose as the compound, how does the “Weight Ratio” value read?
A: The value was 0.53.

Q: How did the “Weight Ratio” value turn out when OC[C@H]1O[C@H](OC[C@H]2OC(O)[C@H](O)[C@@H](O)[C@@H]2O)[C@H](O)[C@@H](O)[C@@H]1O (stereo partly drawn) [Isomaltose] was run?
A: The value was 0.93.

Q: OC[C@H]1O[C@H](O[C@H]2[C@H](O)[C@@H](O)[C@@H](O[C@H]3[C@H](O)[C@@H](O)[C@@H](O[C@H]4[C@H](O)[C@@H](O)C(O)O[C@@H]4CO)O[C@@H]3CO)O[C@@H]2CO)[C@H](O)[C@@H](O)[C@@H]1O (stereo partly drawn) [Maltotetrose] was tested. Which “Weight Ratio” value did it give?
A: Its value is 0.38.

Q: With OC[C@H]1O[C@H](OC[C@H]2O[C@H](O[C@H]3[C@H](O)[C@@H](O)C(O)O[C@@H]3CO)[C@H](O)[C@@H](O)[C@@H]2O)[C@H](O)[C@@H](O)[C@@H]1O (stereo partly drawn) [Panose] as the compound, how does the “Weight Ratio” value read?
A: The value was 1.56.

same assay, conditions: compared with the acceptors of Table 2.0, two hour reaction time

Q: With O[C@H]1[C@H](O)[C@@H](O)[C@H](O)[C@@H](O)[C@H]1O [myo-inositol] as the compound, how does the suitability as acceptor read?
A: The suitability as acceptor was “not as effective acceptors”.

Q: O=C[C@H](O)[C@@H](O)[C@H](O)CO [xylose] was tested. Which suitability as acceptor did it give?
A: Its suitability as acceptor is “not as effective acceptors”.

Q: How did the suitability as acceptor turn out when O=C[C@@H](O)[C@H](O)[C@H](O)CO [arabinose] was run?
A: Its suitability as acceptor is “not as effective acceptors”.

test system: rat intestinal powder; experiment: In vitro digestibility assay using rat intestinal powder; type: in vitro ADME; details: in 4 hours
Procedure: The results provided in this example are derived from in vitro digestibility assays using rat intestinal powder available from Sigma/Aldrich, Saint Louis, Mo., Catalog Number I-1630). […] Free glucose concentration in the reaction mixture was analyzed over time by the HPLC method described above.

Q: With OC[C@H]1O[C@H](O[C@H]2[C@H](O)[C@@H](O)C(O)O[C@@H]2CO)[C@H](O)[C@@H](O)[C@@H]1O (mixture of isomers) [Maltose, reference compound] as the compound, how does the digested read?
A: The digested was 88%.
